Measured values reported in patent publication US9884063B2, “Amido-substituted azole compounds” (Bayer Pharma Aktiengesellschaft, priority 2014, dated 2018).
Values belong to the compound of their own block, whether it stands above or below them.

Legend:
[1] = test system: wildtype Wnt signaling cascade; experiment: HEK293 TOP Assay (Super TopFlash luciferase reporter, Wnt-3a stimulated); format: cell-based; conditions: Homo sapiens, HEK293, 16 h, HEK293 TOP reporter cell line, Wnt-3a at EC50, 16 hours incubation, compound dilution series 50 μM to 15 nM
In short: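 Compounds (50 μM down to 15 nM, 3.16-fold steps, in CAFTY buffer pH 7.4, 2 mM Ca2+, 0.01% BSA) tested in parallel on TOP and FOP HEK293 reporter lines to define selective wildtype Wnt inhibition. Pathway driven by recombinant human Wnt-3a applied at 2500–5 ng/ml in two-fold dilutions.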

TNKS2 = target: T1, TNKS2 (Homo sapiens, UniProt Q9H2K2); experiment: Modified TNKS2 Assay 2 (auto-parsylation, [3H]-NAD+ SPA); format: biochemical; conditions: 6 nM TNKS2, 96 well
T1 sequence (Q9H2K2 1-1166): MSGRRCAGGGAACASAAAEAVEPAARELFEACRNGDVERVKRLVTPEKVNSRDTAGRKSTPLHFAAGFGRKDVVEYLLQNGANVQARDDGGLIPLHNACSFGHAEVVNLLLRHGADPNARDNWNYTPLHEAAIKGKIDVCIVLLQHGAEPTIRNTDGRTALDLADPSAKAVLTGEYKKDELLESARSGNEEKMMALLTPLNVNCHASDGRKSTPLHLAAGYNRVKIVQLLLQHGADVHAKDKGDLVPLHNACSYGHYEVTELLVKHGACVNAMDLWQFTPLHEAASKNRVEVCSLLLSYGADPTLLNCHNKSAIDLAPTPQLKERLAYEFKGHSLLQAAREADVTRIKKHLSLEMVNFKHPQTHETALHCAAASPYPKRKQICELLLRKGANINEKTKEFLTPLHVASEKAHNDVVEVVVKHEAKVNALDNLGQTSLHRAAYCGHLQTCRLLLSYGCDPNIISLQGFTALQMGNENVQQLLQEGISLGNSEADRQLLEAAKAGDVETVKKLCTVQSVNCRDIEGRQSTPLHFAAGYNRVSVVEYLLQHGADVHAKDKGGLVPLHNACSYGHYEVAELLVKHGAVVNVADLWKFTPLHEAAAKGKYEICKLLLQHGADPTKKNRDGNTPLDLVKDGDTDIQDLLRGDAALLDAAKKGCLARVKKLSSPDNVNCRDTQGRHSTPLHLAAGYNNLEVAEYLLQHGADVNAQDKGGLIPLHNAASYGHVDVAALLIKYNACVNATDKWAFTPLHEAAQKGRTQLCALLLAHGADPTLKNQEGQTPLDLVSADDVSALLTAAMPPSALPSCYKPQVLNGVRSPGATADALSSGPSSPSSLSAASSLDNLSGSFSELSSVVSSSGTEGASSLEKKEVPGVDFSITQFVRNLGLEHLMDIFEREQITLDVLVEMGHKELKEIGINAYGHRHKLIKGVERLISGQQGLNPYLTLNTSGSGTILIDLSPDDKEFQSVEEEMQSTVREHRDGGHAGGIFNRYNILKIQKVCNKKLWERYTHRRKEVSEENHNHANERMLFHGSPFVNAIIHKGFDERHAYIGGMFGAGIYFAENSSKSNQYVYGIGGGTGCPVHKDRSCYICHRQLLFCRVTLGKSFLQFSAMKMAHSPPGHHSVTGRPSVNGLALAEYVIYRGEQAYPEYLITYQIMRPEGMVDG

- IC50 [1]: 460 nM
- IC50 (TNKS2): 200 nM
SMILES: O=C(Nc1ccc(NC(=O)c2nc[nH]c2C(=O)NCC2CCOCC2)cc1)c1ccc(F)cc1Cl [Example 397, N^5-{4-[(2-chloro-4-fluorobenzoyl)amino]phenyl}-N^4-(tetrahydro-2H-pyran-4-ylmethyl)-1H-imidazole-4,5-dicarboxamide]

- IC50 [1]: 710 nM
- IC50 (TNKS2): 100 nM
SMILES: O=C(Nc1ccc(NC(=O)c2[nH]cnc2C(=O)NCCc2cccnc2)cc1)c1ccc(F)cc1Cl [Example 405, N^5-{4-[(2-chloro-4-fluorobenzoyl)amino]phenyl}-N^4-[2-(pyridin-3-yl)ethyl]-1H-imidazole-4,5-dicarboxamide]

- IC50 [1]: 700 nM
- IC50 (TNKS2): 90 nM
SMILES: CCN1CCC[C@@H]1CNC(=O)c1nc[nH]c1C(=O)Nc1ccc(NC(=O)c2ccc(F)cc2Cl)cc1 [Example 413, N^5-{4-[(2-chloro-4-fluorobenzoyl)amino]phenyl}-N^4-{[(2R)-1-ethylpyrrolidin-2-yl]methyl}-1H-imidazole-4,5-dicarboxamide]

- IC50 [1]: 560 nM
- IC50 (TNKS2): 80 nM
SMILES: CN1CCN(CC(C)(C)CNC(=O)c2nc[nH]c2C(=O)Nc2ccc(NC(=O)c3ccc(F)cc3Cl)cc2)CC1 [Example 415, N^5-{4-[(2-chloro-4-fluorobenzoyl)amino]phenyl}-N^4-[2,2-dimethyl-3-(4-methylpiperazin-1-yl)propyl]-1H-imidazole-4,5-dicarboxamide]

Continued, compound first:

SMILES: CC(C)N(CCNC(=O)c1nc[nH]c1C(=O)Nc1ccc(NC(=O)c2ccc(F)cc2Cl)cc1)C(C)C [Example 389, N^5-{4-[(2-chloro-4-fluorobenzoyl)amino]phenyl}-N^4-{2-[di(propan-2-yl)amino]ethyl}-1H-imidazole-4,5-dicarboxamide]
- IC50 [1]: 750 nM
- IC50 (TNKS2): 280 nM

SMILES: CC1(C)CC(NC(=O)c2nc[nH]c2C(=O)Nc2ccc(NC(=O)c3ccc(F)cc3Cl)cc2)CCO1 (stereo not shown) [Example 391, N^5-{4-[(2-chloro-4-fluorobenzoyl)amino]phenyl}-N^4-(2,2-dimethyltetrahydro-2H-pyran-4-yl)-1H-imidazole-4,5-dicarboxamide]
- IC50 [1]: 670 nM
- IC50 (TNKS2): 450 nM

SMILES: CCN(CC)CCCCNC(=O)c1nc[nH]c1C(=O)Nc1ccc(NC(=O)c2ccc(F)cc2Cl)cc1 [Example 393, N^5-{4-[(2-chloro-4-fluorobenzoyl)amino]phenyl}-N^4-[4-(diethylamino)butyl]-1H-imidazole-4,5-dicarboxamide]
- IC50 [1]: 880 nM
- IC50 (TNKS2): 750 nM

SMILES: O=C(Nc1ccc(NC(=O)c2[nH]cnc2C(=O)NCCc2ccncc2)cc1)c1ccc(F)cc1Cl [Example 394, N^5-{4-[(2-chloro-4-fluorobenzoyl)amino]phenyl}-N^4-[2-(pyridin-4-yl)ethyl]-1H-imidazole-4,5-dicarboxamide]
- IC50 [1]: 700 nM
- IC50 (TNKS2): 60 nM
